# Laboratory results as given in patent US10351559B2, “Maleate salts of a B-RAF kinase inhibitor, crystalline forms, methods of preparation, and uses therefore” (BeiGene, Ltd., priority 2015, dated 2019).
# Where a name gives a salt, the structure may show the parent alone.
# Key:
# [1] = test system: BRAF V600E and KRAS cancers; experiment: Phase I clinical study; assay type: in vivo, human; conditions: capsules, 5-50 mg single doses, 25 subjects
# [2] = pharmacokinetic study (LC-MS/MS); assay type: in vivo, beagle dogs; conditions: dogs
# Excerpt: The fully-validated LC-MS/MS method was well used for the pharmacokinetic (PK) studies of Crystalline Form A* of Compound 1 Sesqui-Maleate in Sprague-Dawley rats and beagle dogs following single- and multiple-dose administrations.
# [3] = Raf kinase enzymatic assay (HTRF)
# [4] = aqueous solubility study; assay type: physicochemical; conditions: sesqui-maleate salt
# [5] = test system: P450 enzymes in rat liver; experiment: P450 enzyme induction; assay type: in vitro ADME
# [6] = test system: ERK phosphorylation in Colo205 cells; experiment: cellular phospho-ERK TR-FRET assay; assay type: cell-based; conditions: Homo sapiens, COLO 205; B-RAF V600E mutant Colo205 colorectal cancer cells, 1 h treatment
# Procedure: (§1) A375, Sk-Mel-28, HT29, Colo205, A431, and HCC827 cell lines were purchased from American Type Culture Collection. All the cell lines used in the cellular assays were cultured in the designated medium supplemented with 10% fetal bovine serum (FBS, Thermo Scientific), 100 units/mL penicillin (Gibco), 0.1 mg/mL streptomycin (Gibco) and in a humidified 37° C. environment with 5% CO2. Cell lines were reinstated from frozen stocks laid down within three passages from the original cells purchased and passaged no more than 30 times.
# (§2) Cellular phospho-ERK and phospho-EGFR were measured using a TR-FRET-based method. Cells were seeded at 3×10^4 per well of a 96-well plate and left to attach for 16 hours. Growth medium was then replaced with 100 μL of medium containing no serum. Cells were then treated with a 10-point titration of compound. After 1 h of compound treatment, 50 μL of lysis buffer (Cisbio) were added to each well. Plates were then incubated at room temperature with shaking for 30 min. A total of 16 μL of cell lysate from each well of a 96-well plate was transferred to a 384-well small volume white plate. Lysate from each well was incubated with 2 μL of Eu3+- or Tb3+-cryptate (donor) labeled anti-ERK or anti-EGFR antibody (Cisbio) and 2 μL of D2 (acceptor) labeled anti-phospho-ERK or anti-phospho-EGFR antibody (Cisbio) for 2 h at room temperature. FRET signals were measured using a PHERAstar FS reader (BMG Labtech). IC50 values for ERK or EGFR phosphorylation was determined using GraphPad Prism software.
# [7] = test system: ERK phosphorylation in HT29 cells; experiment: cellular phospho-ERK TR-FRET assay; assay type: cell-based; conditions: Homo sapiens, HT-29; B-RAF V600E mutant HT29 colorectal cancer cells, 1 h treatment
# Procedure: as §1, §2
# [8] = test system: ERK phosphorylation in A375 cells; experiment: cellular phospho-ERK TR-FRET assay; assay type: cell-based; conditions: Homo sapiens, A-375; B-RAF V600E mutant melanoma A375 cells, 1 h treatment
# Procedure: as §1, §2
# [9] = test system: WiDr colorectal carcinoma (B-RAF V600E mutation) xenografts; experiment: xenograft efficacy study; assay type: in vivo, BALB/C nude mice; conditions: WiDr xenografts in nude mice, oral
# Procedure: (§3) Human cancer cells were inoculated subcutaneously in the right axilla region of BALB/C nude mice to generate tumor xenografts. On the day of implantation, the cell culture medium was replaced with fresh medium. Three hours later, the media was removed and the cells were collected and re-suspended in cold (4° C.) PBS prior to inoculation. The right axilla region of each mouse was cleaned with 70% ethanol prior to cell inoculation. Each animal was injected subcutaneously with desired cells in 200 μl of cell suspension in the right front flank via a 26-gauge needle. After implantation tumor volumes were measured twice weekly in two dimensions using a calliper. Tumor volume was calculated using the formula: V=0.5×(a×b^2) where a and b are the long and short diameters of the tumor, respectively.
# (§4) For in vivo efficacy studies, when the average tumor size reaches 100˜200 mm^3, animals were assigned into desired number of groups with 6-10 mice per group using a stratified randomization procedure. The groups consisted of a control group (no drug treatment), and different dose levels of Crystalline Form A* of Compound 1 Sesqui-Maleate treatment groups (ranged from 1-20 mg/kg). All doses were based on free-base weight. Drugs were administered by oral gavage once (qd) or twice (bid) daily; dosing frequency depended on the individual case for tumor growth. Treatments were administered by oral gavage (p.o.) in a volume of 10 ml/kg body weight. Body weight was assessed immediately before dosing and the volume dosed was adjusted accordingly. Individual body weights and tumor volumes were determined twice weekly, with mice being monitored daily for clinical signs of toxicity for the duration of the study. Mice were euthanized using carbon dioxide once their tumor volume reached 2000 mm^3, the tumor was ulcerated, or body weight loss exceeded 20%. All group data was analyzed using the t test. If the p value was <0.05, it was considered to be statistically significant.
# (§5) Tumor growth inhibition (TGI) was calculated using the following formula: […]
# [10] = test system: A431 epidermoid carcinoma (EGFR overexpression) xenografts; experiment: xenograft efficacy study; assay type: in vivo, BALB/C nude mice; conditions: A431 xenografts in nude mice, oral
# Procedure: as §3, §4, §5
# [11] = test system: human A375 melanoma (B-RAF V600E mutation) xenografts; experiment: xenograft efficacy study; assay type: in vivo, BALB/C nude mice; conditions: A375 xenografts in nude mice, oral
# Procedure: as §3, §4, §5
# [12] = test system: HCC827 lung carcinoma (EGFR mutation) xenografts; experiment: xenograft efficacy study; assay type: in vivo, BALB/C nude mice; conditions: HCC827 xenografts in nude mice, oral
# Procedure: as §3, §4, §5
# [13] = test system: LOX melanoma (B-RAF V600E mutation) xenografts; experiment: xenograft efficacy study; assay type: in vivo, BALB/C nude mice; conditions: LOX xenografts in nude mice, oral
# Procedure: as §3, §4, §5
# [14] = test system: Colo205 colorectal carcinoma (B-RAF V600E mutation) xenografts; experiment: xenograft efficacy study; assay type: in vivo, BALB/C nude mice; conditions: Colo205 xenografts in nude mice, oral
# Procedure: as §3, §4, §5
# [15] = test system: HT29 colorectal carcinoma (B-RAF V600E mutation) xenografts; experiment: xenograft efficacy study; assay type: in vivo, BALB/C nude mice; conditions: HT29 xenografts in nude mice, oral
# Procedure: as §3, §4, §5
# [16] = target: CYP2C19 (Homo sapiens, UniProt P33261); experiment: CYP inhibition; assay type: in vitro ADME
# CYP2C19, sequence (P33261 whole entry): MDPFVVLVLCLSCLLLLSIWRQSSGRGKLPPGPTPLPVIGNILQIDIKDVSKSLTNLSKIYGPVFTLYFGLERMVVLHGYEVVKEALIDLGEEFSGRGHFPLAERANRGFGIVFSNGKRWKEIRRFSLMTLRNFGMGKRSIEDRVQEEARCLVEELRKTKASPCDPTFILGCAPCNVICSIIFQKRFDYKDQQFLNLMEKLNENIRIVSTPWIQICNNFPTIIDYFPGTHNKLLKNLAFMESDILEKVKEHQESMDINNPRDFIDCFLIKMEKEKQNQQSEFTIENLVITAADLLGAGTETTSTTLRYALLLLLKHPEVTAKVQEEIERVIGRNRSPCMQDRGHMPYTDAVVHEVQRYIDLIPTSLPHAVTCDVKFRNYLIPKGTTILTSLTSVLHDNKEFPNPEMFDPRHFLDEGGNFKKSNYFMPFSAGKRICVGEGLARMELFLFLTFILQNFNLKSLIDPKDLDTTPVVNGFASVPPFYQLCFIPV
# [17] = long-term stability study; assay type: physicochemical
structure (smiles),measurement,setting,value
"O=C1CCc2c(Oc3ccc4c(c3)[C@@H]3[C@H](O4)[C@H]3c3nc4ccc(C(F)(F)F)cc4[nH]3)ccnc2N1 [5-(((1R,1aS,6bR)-1-(6-(trifluoromethyl)-1H-benzo[d]imidazol-2-yl)-1a,6b-dihydro-1H-cyclopropa[b]benzofuran-5-yl)oxy)-3,4-dihydro-1,8-naphthyridin-2(1H)-one sesqui-maleate salt]",clinical safety of single doses,[1],safe and well tolerated
same,bioavailability,"[2]; beagle, dog, in vivo, po",41 to 82%
same,half-life,"[2]; beagle, dog, in vivo, after oral administration, read-out: elimination half-life",3.3 to 4.9 h
same,accumulation after multiple dosing,[2],No accumulation
same,kinetics over dose range,[2]; 1.5 to 15 mg/kg,linear
same,IC50,"[3]; BRAF V600E (416-766), ATP at KM",26 nM
same,enzyme inhibition,[3]; V600E mutant B-RAF,potent and reversible inhibitor
same,solubility in water,[4],slightly soluble in water
same,aqueous solubility,"[4]; water, LOQ at 0.001 mg/mL",20 µg/mL
same,induction effect on P450 enzymes,[5],No significant induction effect
same,IC50,[6],53 nM
same,IC50,[7],103 nM
same,IC50,[8],32 nM
same,antitumor activity,[9],marked antitumor activity
same,antitumor activity,[10],marked antitumor activity
same,antitumor activity,[11],marked antitumor activity
same,antitumor activity,[12],marked antitumor activity
same,antitumor activity,[13],marked antitumor activity
same,antitumor activity,[14],marked antitumor activity
same,antitumor activity,[15],marked antitumor activity
same,IC50,[16],1960 nM
same,purity after stability study,[17]; 24 month at 25 C/75% RH,98.5%
same,crystal form and optical purity changes,[17]; 25° C./60% RH up to 18 months and 40° C./75% RH up to 6 months,no crystal form and optical purity changes were observed
same,Assay w/w,"[17]; T0, 25° C./60% RH study",99.1%
same,Assay w/w,"[17]; T0, 40° C./75% RH study",99.1%
same,Assay w/w,[17]; T6: 6 months at 40° C./75% RH,98.9%
same,Assay w/w,[17]; T18: 18 months at 25° C./60% RH,98.8%
